Patent publication US5081241A, “Spiro-pyridazines and analogs thereof useful as aldose reductase inhibitors” (American Home Products Corporation, priority 1990, dated 1992)

Columns and labels:
aldose reductase = biological target: T1, aldose reductase (Bos taurus, UniProt P16116); assay: in vitro aldose reductase inhibition (modified Hayman and Kinoshita procedure; enzyme from bovine lens); type: biochemical; conditions: 10^-5
T1 construct: preparation of the enzyme from bovine lens; from tissue; host or cells: bovine lens
Description: (§1) (c) The polyol determination was performed by a modification of the procedure of M. Kraml and L. Cosyns, Clin. Biochem., 2, 373 (1969). Only two minor reagent changes were made: (a) the rinsing mixture was an aqueous 5% (w/v) trichloroacetic acid solution and (b) the stock solution was prepared by dissolving 25 mg of dulcitol in 100 mL of an aqueous trichloroacetic acid solution. [N.B.: For each experiment the average value found in the tissue from rats fed the glucose diet was subtracted from the individual values found in the corresponding tissue in galactose-fed rats to obtain the amount of polyol accumulated.] The aldose reductase inhibiting effects of the compounds of formula (I) were also tested by employing an in vitro testing procedure similar to that described by S. Hayman and J. H. Kinoshita, J. Biol. Chem., 240, 877 (1965). In the present case the procedure of Hayman and Kinoshita was modified in that the final chromatography step was omitted in the preparation of the enzyme from bovine lens.

[1] = test system: accumulation of dulcitol in the lenses, sciatic nerves and diaphragm of rats fed galactose; assay: in vivo lowering of galactitol (dulcitol) accumulation in galactosemic rats; set-up: species or system male Sprague-Dawley rats
Text: The aldose reductase inhibiting property of the compounds of this invention and the utilization of the compounds in preventing, diminishing and alleviating diabetic complications are demonstrable in experiments using galactosemic rats, see Dvornik et al., Science, 182, 1146 (1973). Such experiments are exemplified hereinbelow after the listing of the following general comments pertaining to these experiments:
(a) Four or more groups of six male rats, 50-70 g, Sprague-Dawley strain, were used. The first group, the control group, was fed a mixture of laboratory chow (rodent Laboratory Chow, Purina) and glucose at 20% (w/w %) concentration. An untreated galactosemic group was fed a similar diet in which galactose was substituted for glucose. The third group was fed a diet prepared by mixing a given amount of the test compound with the galactose containing diet. The concentration of galactose in the diet of the treated groups was the same as that for the untreated galactosemic group.
(b) After four days, the animals were killed by euthanization. Both the lens and sciatic nerve were removed, weighed and stored frozen for polyol determination.
as §1
The figures under L, N, and D represent the percentage decrease of dulcitol accumulation in the tissues of the lens, sciatic nerve, and diaphragm, respectively, for treated rats as compared to untreated rats.

[2] = feed or water, 55 mg/kg/day, 96 h

Structure (SMILES)	% Inhibition In Vitro (aldose reductase) [%]	% Lowering Galacititol Accumulation In Vivo % (D) ([1]; diaphragm, dose 47 mg/kg/day in diet, 4 days, vs untreated galactosemic rats) [%]	% Lowering Galacititol Accumulation In Vivo % (L) ([1]; lens, dose 47 mg/kg/day in diet, 4 days, vs untreated galactosemic rats) [%]	% Lowering Galacititol Accumulation In Vivo % (D) ([1]; diaphragm, dose 25 mg/kg/day in diet, 4 days, vs untreated galactosemic rats) [%]	% Lowering Galacititol Accumulation In Vivo % (D) [1, 2] [%]
CN1C(=O)CC2(C(=O)N(Cc3ccc(Br)cc3F)C(=O)c3ccc(F)cc32)C(=O)N1C (centres unmarked) [R^1 = F, R^5 = CH3, 2-[(4-bromo-2-fluorophenyl)methyl]-6-fluoro-1',2'-dimethylspiro[isoquinoline-4(1H),4'(1'H)-pyridazine]-1,3,3',6'(2H,2'H,5'H)-tetrone]	5	59	18	–	–
CN1C(=O)CC2(C(=O)N(Cc3ccc(Br)cc3F)C(=O)c3ccccc32)C(=O)N1C (centres unmarked) [R^1 = H, R^5 = CH3, 2-[(4-bromo-2-fluorophenyl)methyl]-1',2'-dimethylspiro[isoquinoline-4(1H),4'(1'H)-pyridazine]-1,3,3',6'(2H,2'H,5'H)-tetrone]	6	–	–	48	82
CN1NC(=O)C2(CC1=O)C(=O)N(Cc1ccc(Br)cc1F)C(=O)c1ccccc12 (centres unmarked) [R^1 = H, R^5 = H, 2-[(4-bromo-2-fluorophenyl)methyl]-1'-methylspiro[isoquinoline-4(1H),4'(1'H)-pyridazine]-1,3,3',6'(2H,2'H,5'H)-tetrone]	21	–	–	–	21
